Reference: patent US8541462B2, “Tetrahydrocarbazole derivatives as ligands of G-protein coupled receptors” (AEterna Zentaris GmbH, priority 2007, dated 2013)

Assay: Metabolic stability testing in liver microsomes
Assay type: in vitro ADME
Conditions: mixed-gender human liver microsomes, 1 mg microsomal protein/mL, initial concentration 10 μM, 60 minutes at 37° C.; WO 2006/005484-substance 7 = 100%
Method: Subcellular fractions of different tissues can be prepared easily by ultracentrifugation. Most commonly these are prepared from the liver of animals and human donors to gain information about the potential hepatic clearance of compounds (first-pass elimination of drugs). Human or animal (e.g. dog, mouse, rat) subcellular fraction like liver microsomes, or possibly the fraction called S9 have therefore become a very commonly and widely used as an in vitro model to investigate mainly cytochrome P450 dependent phase I (but also phase II) metabolism that takes place in the liver.
In order to reflect the standard proportion of the enzymes in human and animal livers, liver microsomes are usually pooled from a number of […] of the same sex (or mixed-gender). By supplementing the liver microsomes with relevant cofactors and other components it is possible to investigate and distinguish between CYPs, flavin-containing monooxygenase (FMO) and UDP-glucuronosyltransferase (UGT) activities.
Selected compounds of the invention were tested for their stability in mixed-gender human liver microsomes and compared to pertinent prior art compounds.
Under the test conditions applied (1 mg microsomal protein/mL, initial concentration of 10 μM, and incubation for 60 minutes at 37° C.) the following normalized results were obtained.

SMILES	Normalized microsomal stability [%]
CCOC(=O)c1csc(C(NC(=O)[C@@]2(NC(=O)[C@@H](NC(=O)Cc3ccccc3F)[C@@H](C)CC)CCc3[nH]c4c(C(F)(F)F)cccc4c3C2)[C@@H](C)CC)n1 (stereo in doubt) [compound 251, 2-{(1R,2S)-1-[((R)-3-{(2S,3S)-2-[2-(2-Fluoro-phenyl)-acetylamino]-3-methyl-pentanoylamino}-8-trifluoromethyl-2,3,4,9-tetrahydro-1H-carbazole-3-carbonyl)-amino]-2-methyl-butyl}-thiazole-4-carboxylic acid ethyl ester]	1033
CCNC(=O)Nc1nnc([C@@H](NC(=O)[C@]2(NC(=O)[C@@H](NC(=O)Cc3ccccc3F)C(C)CC)CCc3[nH]c4c(C(F)(F)F)cccc4c3C2)C(C)CC)o1 (stereo partly drawn) [Compound 31, (S)-3-{(S)-2-[2-(2-Fluoro-phenyl)-acetylamino]-3-methyl-pentanoylamino}-8-trifluoromethyl-2,3,4,9-tetrahydro-1H-carbazole-3-carboxylic acid {(S)-1-[5-(3-ethyl-ureido)-[1,3,4]oxadiazol-2-yl]-2-methyl-butyl}-amide]	276
CCC(C)[C@H](NC(=O)Cc1ccccc1F)C(=O)N[C@]1(C(=O)N[C@H](C(=O)NCN2CCOCC2)C(C)CC)CCc2[nH]c3c(C(F)(F)F)cccc3c2C1 (stereo partly shown) [Compound 36]	774
CCC(C)[C@H](NC(=O)Cc1ccccc1F)C(=O)N[C@]1(C(=O)N[C@H](C(=S)NCCN2CCOCC2)C(C)CC)CCc2[nH]c3c(C(F)(F)F)cccc3c2C1 (stereo partly drawn) [Compound 54, (R)-3-{(S)-2-[2-(2-Fluoro-phenyl)-acetylamino]-3-methyl-pentanoylamino}-8-trifluoromethyl-2,3,4,9-tetrahydro-1H-carbazole-3-carboxylic acid [(S)-2-methyl-1-(2-morpholin-4-yl-ethylthiocarbamoyl)-butyl]-amide]	611
CCC(C)[C@H](NC(=O)Cc1ccccc1F)C(=O)N[C@]1(C(=O)N[C@H](C(=O)NC2CCC(O)CC2)C(C)CC)CCc2[nH]c3c(C(F)(F)F)cccc3c2C1 (stereo partly drawn) [Compound 73, (R)-3-{(S)-2-[2-(2-Fluoro-phenyl)-acetylamino]-3-methyl-pentanoylamino}-8-trifluoromethyl-2,3,4,9-tetrahydro-1H-carbazole-3-carboxylic acid [(S)-1-(4-hydroxy-cyclohexylcarbamoyl)-2-methyl-butyl]-amide]	624
CCC(C)[C@H](NC(=O)Cc1ccccc1F)C(=O)N[C@]1(C(=O)N[C@H](C(=S)NCCCCn2cncn2)C(C)CC)CCc2[nH]c3c(C(F)(F)F)cccc3c2C1 (stereo partly drawn) [compound 114, (R)-3-{(S)-2-[2-(2-Fluoro-phenyl)-acetylamino]-3-methyl-pentanoylamino}-8-trifluoromethyl-2,3,4,9-tetrahydro-1H-carbazole-3-carboxylic acid [(S)-2-methyl-1-1(4-[1,2,4]triazol-1-ylbutylthiocarbamoyl)-butyl]-amide]	537
CCC(C)[C@H](NC(=O)Cc1ccccc1F)C(=O)N[C@]1(C(=O)N[C@H](C(=O)Nc2ccc3ncccc3c2)C(C)CC)CCc2[nH]c3c(C(F)(F)F)cccc3c2C1 (stereo partly drawn) [compound 137, (R)-3-{(S)-2-[2-(2-Fluoro-phenyl)-acetylamino]-3-methyl-pentanoylamino}-8-trifluoromethyl-2,3,4,9-tetrahydro-1H-carbazole-3-carboxylic acid [(S)-2-methyl-1-(quinolin-6-ylcarbamoyl)-butyl]-amide]	1296
CCC(C)[C@H](NC(=O)Cc1ccccc1F)C(=O)N[C@]1(C(=O)N[C@H](C(=O)NNc2ccccc2)C(C)CC)CCc2[nH]c3c(C(F)(F)F)cccc3c2C1 (stereo partly drawn) [compound 144, (R)-3-{(S)-2-[2-(2-Fluoro-phenyl)-acetylamino]-3-methyl-pentanoylamino}-8-trifluoromethyl-2,3,4,9-tetrahydro-1H-carbazole-3-carboxylic acid [(S)-2-methyl-1-(N′-phenyl-hydrazinocarbonyl)-butyl]-amide]	1352
CCC(C)[C@H](NC(=O)Cc1ccccc1F)C(=O)N[C@]1(C(=O)N[C@H](C(=O)NNC(N)=O)C(C)CC)CCc2[nH]c3c(C(F)(F)F)cccc3c2C1 (stereo partly drawn) [compound 164, (R)-3-{(S)-2-[2-(2-Fluoro-phenyl)-acetylamino]-3-methyl-pentanoylamino}-8-trifluoromethyl-2,3,4,9-tetrahydro-1H-carbazole-3-carboxylic acid [(S)-1-(N′-aminocarbonyl-hydrazinocarbonyl)-2-methyl-butyl]-amide]	1230
CCNC(=O)NC[C@@H](NC(=O)[C@@]1(NC(=O)[C@@H](NC(=O)Cc2ccccc2F)C(C)CC)CCc2[nH]c3c(C(F)(F)F)cccc3c2C1)C(C)CC (stereo partly drawn) [compound 167, (R)-3-{(S)-2-[2-(2-Fluoro-phenyl)-acetylamino]-3-methyl-pentanoylamino}-8-trifluoromethyl-2,3,4,9-tetrahydro-1H-carbazole-3-carboxylic acid {(S)-1-[(3-ethyl-ureido)-methyl]-2-methyl-butyl}-amide]	274
CCNC(=S)NC[C@@H](NC(=O)[C@@]1(NC(=O)[C@@H](NC(=O)Cc2ccccc2F)C(C)CC)CCc2[nH]c3c(C(F)(F)F)cccc3c2C1)C(C)CC (stereo partly drawn) [compound 173, (R)-3-{(S)-2-[2-(2-Fluoro-phenyl)-acetylamino]-3-methyl-pentanoylamino}-8-trifluoromethyl-2,3,4,9-tetrahydro-1H-carbazole-3-carboxylic acid {(S)-1-[(3-ethyl-thioureido)-methyl]-2-methyl-butyl}-amide]	285
CCC(C)[C@H](NC(=O)Cc1ccccc1F)C(=O)N[C@]1(C(=O)N[C@H](C(=O)NCc2cncnc2)C(C)CC)CCc2[nH]c3c(C(F)(F)F)cccc3c2C1 (stereo partly shown) [compound 183]	1350
CCC(C)[C@H](NC(=O)Cc1ccccc1F)C(=O)N[C@]1(C(=O)N[C@H](C(=O)NCCCn2c[n+](C(C)(C)C)nn2)C(C)CC)CCc2[nH]c3c(C(F)(F)F)cccc3c2C1.O=C([O-])C(F)(F)F (stereo partly drawn) [compound 188, 1-tert-butyl-4-(3-{(S)-2-[((R)-3-{(S)-2-[2-(2-fluoro-phenyl)-acetylamino]-3-methyl-pentanoylamino}-8-trifluoromethyl-2,3,4,9-tetrahydro-1H-carbazole-3-carbonyl)-amino]-3-methyl-pentanoylamino}-propyl)-4H-tetrazol-1-ium; Trifluoro-acetate]	1259
CCC(C)[C@H](NC(=O)Cc1ccccc1F)C(=O)N[C@]1(C(=O)N[C@H](CNC(=O)NCc2ccncc2)C(C)CC)CCc2[nH]c3c(C(F)(F)F)cccc3c2C1 (stereo partly drawn) [compound 190, (R)-3-{(S)-2-[2-(2-Fluoro-phenyl)-acetylamino]-3-methyl-pentanoylamino}-8-trifluoromethyl-2,3,4,9-tetrahydro-1H-carbazole-3-carboxylic acid [(S)-2-methyl-1-(3-pyridin-4-ylmethyl-ureidomethyl)-butyl]-amide]	665
CCC(C)[C@H](NC(=O)Cc1ccccc1F)C(=O)N[C@]1(C(=O)N[C@H](CNC(=S)NCc2ccncc2)C(C)CC)CCc2[nH]c3c(C(F)(F)F)cccc3c2C1 (stereo partly drawn) [compound 205, (R)-3-{(S)-2-[2-(2-Fluoro-phenyl)-acetylamino]-3-methyl-pentanoylamino}-8-trifluoromethyl-2,3,4,9-tetrahydro-1H-carbazole-3-carboxylic acid [(S)-2-methyl-1-(3-pyridin-4-ylmethyl-thioureidomethyl)-butyl]-amide]	800
CCC(C)[C@H](NC(=O)Cc1ccccc1F)C(=O)N[C@]1(C(=O)N[C@H](C(=O)NN2CCOCC2)C(C)CC)CCc2[nH]c3c(C(F)(F)F)cccc3c2C1 (stereo partly drawn) [compound 219, (R)-3-{(S)-2-[2-(2-Fluoro-phenyl)-acetylamino]-3-methyl-pentanoylamino}-8-trifluoromethyl-2,3,4,9-tetrahydro-1H-carbazole-3-carboxylic acid [(S)-2-methyl-1-(morpholin-4-ylcarbamoyl)-butyl]-amide]	452
CCC(C)[C@H](NC(=O)Cc1cccnc1)C(=O)N[C@]1(C(=O)N[C@H](C(N)=S)C(C)CC)CCc2[nH]c3c(C(F)(F)F)cccc3c2C1 (stereo partly drawn) [compound 230, (R)-3-[(S)-3-Methyl-2-(2-pyridin-3-yl-acetylamino)-pentanoylamino]-8-trifluoromethyl-2,3,4,9-tetrahydro-1H-carbazole-3-carboxylic acid ((S)-2-methyl-1-thiocarbamoyl-butyl)-amide]	1948
CCC(C)[C@H](NC(=O)Cc1ccncc1)C(=O)N[C@]1(C(=O)N[C@H](C(N)=S)C(C)CC)CCc2[nH]c3c(C(F)(F)F)cccc3c2C1 (stereo partly drawn) [compound 236, (R)-3-[(S)-3-Methyl-2-(2-pyridin-4-yl-acetylamino)-pentanoylamino]-8-trifluoromethyl-2,3,4,9-tetrahydro-1H-carbazole-3-carboxylic acid ((S)-2-methyl-1-thiocarbamoyl-butyl)-amide]	1328
CCC(C)[C@H](NC(=O)NCc1ccc(OC)cc1)C(=O)N[C@]1(C(=O)N[C@H](C(N)=S)C(C)CC)CCc2[nH]c3c(C(F)(F)F)cccc3c2C1 (stereo partly drawn) [compound 239, (R)-3-{(S)-2-[3-(4-Methoxy-benzyl)-ureido]-3-methyl-pentanoylamino}-8-trifluoromethyl-2,3,4,9-tetrahydro-1H-carbazole-3-carboxylic acid ((S)-2-methyl-1-thiocarbamoyl-butyl)-amide]	307
